Results on twelve molecules are retold here after ChEMBL document CHEMBL4602673, “Insights into Protein-Ligand Interactions in Integrin Complexes: Advances in Structure Determinations” (J Med Chem, 2020).

Molecules are shown by their SMILES. Bridge positions count the residues as written; N and C are the ends. Square brackets hold non-standard residues; d marks the D form. Peptide text beside a SMILES is read from it. hArg = N=C(N)NCCCC[C@H](N)C(=O)O; Mpa = O=C(O)CCS

The target in assay [1] is T1, Integrin alpha-L/beta-2 (LFA-1) (Homo sapiens, UniProt P05107+P20701). Briefly: Binding affinity to human lymphocyte integrin alphaL beta2 (Cys125 to Gly311residues) expressed in Escherichia coli XL-1B cells by isothermal titration calorimetry.
T1 sequence (P20701 whole entry): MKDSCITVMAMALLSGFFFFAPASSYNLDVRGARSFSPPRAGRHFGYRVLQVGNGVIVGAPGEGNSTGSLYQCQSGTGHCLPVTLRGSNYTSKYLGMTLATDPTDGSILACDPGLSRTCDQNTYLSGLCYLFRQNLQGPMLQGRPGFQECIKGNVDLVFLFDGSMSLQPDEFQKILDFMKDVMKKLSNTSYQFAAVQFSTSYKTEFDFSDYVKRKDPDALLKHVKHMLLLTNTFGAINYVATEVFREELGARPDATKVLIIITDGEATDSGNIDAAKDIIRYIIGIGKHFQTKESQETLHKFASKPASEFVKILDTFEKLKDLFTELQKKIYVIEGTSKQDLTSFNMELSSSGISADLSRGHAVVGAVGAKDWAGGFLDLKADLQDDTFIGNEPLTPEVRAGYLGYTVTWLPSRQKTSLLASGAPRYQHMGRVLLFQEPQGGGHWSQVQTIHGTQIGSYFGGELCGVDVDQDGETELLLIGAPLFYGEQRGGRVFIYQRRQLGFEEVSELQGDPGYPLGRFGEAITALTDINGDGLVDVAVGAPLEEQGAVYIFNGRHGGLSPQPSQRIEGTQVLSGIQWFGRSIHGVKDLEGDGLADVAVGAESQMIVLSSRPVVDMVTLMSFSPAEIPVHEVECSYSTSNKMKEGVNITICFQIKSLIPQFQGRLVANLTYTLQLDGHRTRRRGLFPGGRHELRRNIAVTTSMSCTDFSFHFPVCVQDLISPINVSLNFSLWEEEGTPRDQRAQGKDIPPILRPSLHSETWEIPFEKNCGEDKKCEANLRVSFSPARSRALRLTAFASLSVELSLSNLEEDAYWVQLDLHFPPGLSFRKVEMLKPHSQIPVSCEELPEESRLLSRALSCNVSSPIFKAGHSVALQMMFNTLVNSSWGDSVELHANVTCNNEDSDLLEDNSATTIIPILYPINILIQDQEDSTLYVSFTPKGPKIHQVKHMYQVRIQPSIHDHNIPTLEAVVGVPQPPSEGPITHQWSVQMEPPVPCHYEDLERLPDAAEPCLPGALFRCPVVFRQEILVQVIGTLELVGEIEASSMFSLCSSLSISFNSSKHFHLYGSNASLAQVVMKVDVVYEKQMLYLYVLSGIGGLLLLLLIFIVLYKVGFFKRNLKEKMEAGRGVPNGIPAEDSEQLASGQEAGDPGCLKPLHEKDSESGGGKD
T1 sequence (P05107 whole entry): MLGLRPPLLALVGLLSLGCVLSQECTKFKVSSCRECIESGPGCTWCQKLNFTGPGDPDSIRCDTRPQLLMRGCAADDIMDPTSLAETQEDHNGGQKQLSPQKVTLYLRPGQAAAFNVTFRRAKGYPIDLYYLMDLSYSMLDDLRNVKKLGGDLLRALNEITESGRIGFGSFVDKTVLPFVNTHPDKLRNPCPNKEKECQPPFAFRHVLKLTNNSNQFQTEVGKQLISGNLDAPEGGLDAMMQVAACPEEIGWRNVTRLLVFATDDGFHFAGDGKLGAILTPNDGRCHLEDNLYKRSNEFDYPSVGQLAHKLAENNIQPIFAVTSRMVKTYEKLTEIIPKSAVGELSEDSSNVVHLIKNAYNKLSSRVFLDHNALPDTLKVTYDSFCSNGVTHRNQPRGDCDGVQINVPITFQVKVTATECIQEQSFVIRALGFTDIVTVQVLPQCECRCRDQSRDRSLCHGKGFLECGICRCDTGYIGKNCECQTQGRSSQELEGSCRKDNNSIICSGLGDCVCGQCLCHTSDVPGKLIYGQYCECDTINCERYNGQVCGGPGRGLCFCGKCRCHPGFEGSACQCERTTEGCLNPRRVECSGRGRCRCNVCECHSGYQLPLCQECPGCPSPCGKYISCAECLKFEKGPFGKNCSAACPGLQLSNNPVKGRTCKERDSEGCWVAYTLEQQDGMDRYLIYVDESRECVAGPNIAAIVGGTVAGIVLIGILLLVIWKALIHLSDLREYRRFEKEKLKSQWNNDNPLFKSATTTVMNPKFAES
The target of assay [2] is T2, Integrin alpha-V/beta-3 (Homo sapiens, UniProt P05106+P06756). Description: Inhibition of human integrin alphavbeta3 expressed in HEK293 cells assessed as reduction in cell adhesion to fibrinogen preincubated for 20 mins followed by phosphatase substrate addition and measured after 1 hr by spectrophotometry. The class given is cell-based.
T2 sequence (P05106 27-788 limits assumed): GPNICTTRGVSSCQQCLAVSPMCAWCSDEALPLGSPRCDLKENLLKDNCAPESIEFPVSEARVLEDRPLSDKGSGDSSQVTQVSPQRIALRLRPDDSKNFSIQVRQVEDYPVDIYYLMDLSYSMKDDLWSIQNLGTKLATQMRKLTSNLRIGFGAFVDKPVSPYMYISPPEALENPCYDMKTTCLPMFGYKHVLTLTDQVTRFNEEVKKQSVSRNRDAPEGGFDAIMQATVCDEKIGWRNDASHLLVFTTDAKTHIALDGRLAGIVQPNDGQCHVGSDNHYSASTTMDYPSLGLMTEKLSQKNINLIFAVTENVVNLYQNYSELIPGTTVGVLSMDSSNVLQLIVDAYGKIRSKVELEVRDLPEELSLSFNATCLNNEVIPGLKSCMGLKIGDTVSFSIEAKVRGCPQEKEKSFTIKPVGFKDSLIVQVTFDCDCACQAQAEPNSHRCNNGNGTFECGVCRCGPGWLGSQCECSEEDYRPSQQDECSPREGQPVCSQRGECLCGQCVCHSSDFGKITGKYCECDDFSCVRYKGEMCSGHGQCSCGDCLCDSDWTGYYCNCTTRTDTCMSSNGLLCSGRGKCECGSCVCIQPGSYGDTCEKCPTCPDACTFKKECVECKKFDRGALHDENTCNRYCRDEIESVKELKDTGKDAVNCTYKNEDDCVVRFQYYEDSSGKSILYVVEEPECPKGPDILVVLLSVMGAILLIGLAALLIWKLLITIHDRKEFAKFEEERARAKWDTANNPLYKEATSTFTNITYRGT
T2 sequence (P06756 31-889 limits assumed): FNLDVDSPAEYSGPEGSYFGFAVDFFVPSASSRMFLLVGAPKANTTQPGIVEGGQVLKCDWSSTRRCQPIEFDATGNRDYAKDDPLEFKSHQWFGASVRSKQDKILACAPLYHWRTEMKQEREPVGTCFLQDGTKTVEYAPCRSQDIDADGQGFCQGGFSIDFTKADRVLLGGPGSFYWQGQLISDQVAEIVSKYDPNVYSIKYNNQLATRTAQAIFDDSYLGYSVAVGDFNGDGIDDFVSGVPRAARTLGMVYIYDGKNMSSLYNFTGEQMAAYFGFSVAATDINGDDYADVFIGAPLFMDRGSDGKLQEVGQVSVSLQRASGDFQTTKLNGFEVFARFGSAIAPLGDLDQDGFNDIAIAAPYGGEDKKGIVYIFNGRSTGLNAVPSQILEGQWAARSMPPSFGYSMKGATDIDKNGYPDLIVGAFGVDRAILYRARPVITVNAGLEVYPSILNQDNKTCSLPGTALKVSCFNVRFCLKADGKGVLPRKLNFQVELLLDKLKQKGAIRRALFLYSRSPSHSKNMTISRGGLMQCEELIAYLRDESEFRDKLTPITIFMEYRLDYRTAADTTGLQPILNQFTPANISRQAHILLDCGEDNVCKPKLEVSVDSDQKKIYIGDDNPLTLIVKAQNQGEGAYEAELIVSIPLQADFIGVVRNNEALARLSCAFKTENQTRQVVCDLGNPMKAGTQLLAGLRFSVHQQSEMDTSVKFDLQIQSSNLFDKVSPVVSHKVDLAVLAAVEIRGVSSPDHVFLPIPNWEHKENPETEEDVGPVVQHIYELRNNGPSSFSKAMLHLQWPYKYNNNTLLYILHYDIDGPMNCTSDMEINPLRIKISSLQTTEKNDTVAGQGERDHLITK
T2 sequence (P06756 891-1048 limits assumed): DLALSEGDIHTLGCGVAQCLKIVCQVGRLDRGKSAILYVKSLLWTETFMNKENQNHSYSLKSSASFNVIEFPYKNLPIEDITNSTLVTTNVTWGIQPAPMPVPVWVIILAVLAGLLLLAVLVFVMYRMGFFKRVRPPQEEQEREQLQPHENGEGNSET
For the next assay, the target named is Integrin alpha-4/beta-1 (Homo sapiens, UniProt P05556+P13612). Briefly: Binding affinity to human integrin alpha4beta1 incubated for 6 hrs by radioligand binding assay. The class given is protein-complex assay.
A further assay concerns the target Integrin alpha2/beta1 (Homo sapiens, UniProt P05556+P17301). Description: Inhibition of human alpha2 beta1 expressed in CHO cells assessed as reduction in cell adhesion to collagen type 1 incubated for 5 mins by DiOC6 dye based fluorescence microscopy.
In assay [3] the target is T1, Integrin alpha-L/beta-2 (LFA-1). Briefly: Inhibition of human integrin alphaL beta2 assessed as reduction in integrin alphaL beta2/ICAM1 protein-protein interaction by ELISA. The class given is protein-complex assay. Background: ELISA stands for enzyme-linked immunosorbent assay.
For assay [4], the target named is Integrin alpha-IIb/beta-3 (Homo sapiens, UniProt P05106+P08514). Briefly: Inhibition of FITC-dodecapeptide binding to human integrin alpha2b beta3 receptor stably expressed in CHO Lec.3.2.8.1 cells by fluorescence anisotropy. The class given is cell-based.
Another assay concerns the target Integrin alpha-V/beta-1 (Homo sapiens, UniProt P05556+P06756). Briefly: Displacement of [3H] C8 from human integrin alphavbeta1 incubated for 6 hrs by competition binding assay. The class given is protein-complex assay. For orientation: Displacement assays read how much labelled ligand stays bound in the presence of the test substance.
Assay [5] has as its target T2, Integrin alpha-V/beta-3. Description: Inhibition of human integrin alphavbeta3 (unknown origin). The class given is protein-complex assay.

Chain of Integrin alpha-V/beta-1 (P05556 21-798 limits assumed): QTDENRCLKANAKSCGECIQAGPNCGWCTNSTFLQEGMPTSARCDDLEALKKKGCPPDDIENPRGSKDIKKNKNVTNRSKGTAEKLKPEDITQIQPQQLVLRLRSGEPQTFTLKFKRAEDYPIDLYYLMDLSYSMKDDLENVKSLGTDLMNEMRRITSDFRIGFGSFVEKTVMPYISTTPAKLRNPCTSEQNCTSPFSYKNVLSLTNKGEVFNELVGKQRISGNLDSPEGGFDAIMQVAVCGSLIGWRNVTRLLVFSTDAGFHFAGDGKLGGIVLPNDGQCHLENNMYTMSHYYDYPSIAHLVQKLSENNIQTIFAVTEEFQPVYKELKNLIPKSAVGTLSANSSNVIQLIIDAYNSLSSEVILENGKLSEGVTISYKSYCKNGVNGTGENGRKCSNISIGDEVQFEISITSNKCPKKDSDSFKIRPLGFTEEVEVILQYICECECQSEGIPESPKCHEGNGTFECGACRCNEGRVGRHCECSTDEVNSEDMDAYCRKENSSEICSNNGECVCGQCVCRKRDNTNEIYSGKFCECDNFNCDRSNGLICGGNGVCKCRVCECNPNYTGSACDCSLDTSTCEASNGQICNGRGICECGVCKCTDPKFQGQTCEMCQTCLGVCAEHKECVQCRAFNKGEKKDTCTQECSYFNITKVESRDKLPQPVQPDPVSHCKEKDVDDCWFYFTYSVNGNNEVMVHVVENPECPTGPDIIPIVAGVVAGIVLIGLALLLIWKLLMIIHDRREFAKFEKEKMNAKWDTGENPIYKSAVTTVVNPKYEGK
Chain of Integrin alpha-V/beta-1 (P06756 31-889 limits assumed): as the sequence (P06756 31-889 limits assumed) above
Chain of Integrin alpha-V/beta-1 (P06756 891-1048 limits assumed): as the sequence (P06756 891-1048 limits assumed) above

Turning to `CCOc1ccccc1Sc1ccc(-c2ccnc(N3CCN(C(C)=O)CC3)c2)cc1[N+](=O)[O-]`, in assay [1], the dissociation constant (Kd) stood at 18.3 nM. For the molecule `COc1ccc([C@H](CC(=O)O)N2CCN(CCCc3ccc4c(n3)NCCC4)C2=O)cn1`, the concentration for half-maximal inhibition (IC50) at Integrin alpha-V/beta-3 [2] stood at 3 nM.

With `N=C(N)NCCCCC(=O)Nc1ccc(C[C@H](NC(=O)[C@@H]2CCCN2S(=O)(=O)c2ccccc2)C(=O)O)cc1`, the Kd on Integrin alpha-4/beta-1 is 0.794 nM.

In the case of `CN(c1ccc(NC(=O)Nc2ccccc2)cc1)S(=O)(=O)c1cnn(-c2ccc(F)cc2)c1`, the EC50 on Integrin alpha2/beta1 was determined as 130 nM.

For `CC[C@H](C)C(=O)OC1C[C@@H](C)C=C2C=C[C@H](C)[C@H](CC[C@@H]3C[C@H](CC(=O)NC)N(Cc4ccc(O)c(OC)c4)C(=O)O3)[C@H]21` (some centres not stated), the IC50 in assay [3] turned out to be 50 nM.

Take `N=C(N)c1ccc(C(=O)NCCC(=O)N[C@@H](CC(=O)O)C(=O)NC(Cc2ccccc2)C(=O)O)cc1` (some centres not stated): the half-maximal inhibitory concentration (IC50) in assay [4] is 0.6 nM. On to `O=C(CCCCc1ccc2c(n1)NCCC2)NCC[C@H](NC(=O)c1nc2ccccc2s1)C(=O)O`, for which, at Integrin alpha-V/beta-3 [2], the IC50 stood at 25 nM.

With `CC[C@H](C)C(=O)O[C@H]1C[C@@H](C)C=C2C=C[C@H](C)[C@H](CCC3C[C@@H](O)CC(=O)N3Cc3ccc4c(CO)c(OC)ccc4c3)[C@H]21` (some centres not stated), the IC50 in assay [3] worked out at 200 nM. In the case of `CN(c1ccc(NC(=O)Nc2ccccc2)cc1)S(=O)(=O)c1ccc(-c2ccnn2C)s1`, on Integrin alpha2/beta1, the EC50 was 160 nM. For the molecule `CCNC(=O)Nc1cnnc(-c2ccc(C[C@H](NC(=O)c3c(Cl)cccc3Cl)C(=O)O)cc2)c1`, at Integrin alpha-V/beta-1, the Ki was 0.166 nM. As to `O=C(NC[C@H](NS(=O)(=O)c1cccnc1)C(=O)O)c1cc2cc(CCC3CCNCC3)sc2s1`, the IC50 at Integrin alpha-V/beta-3 [5] was in the range of 8 to 19 nM. Turning to `N=C(N)NCCCC[C@@H]1NC(=O)CCSSC[C@@H](C(N)=O)NC(=O)[C@@H]2CCCN2C(=O)[C@H](Cc2c[nH]c3ccccc23)NC(=O)[C@H](CC(=O)O)NC(=O)CNC1=O` [EPTIFIBATIDE] ([Mpa][hArg]GDWPC-NH2; disulfide 1-7), the affinity at Integrin alpha-V/beta-3 [5], expressed as Kd, was 120 nM.

As usually defined, the Kd is a measure of binding affinity in units of concentration. The IC50 is the concentration at which inhibition is half-maximal. As usually defined, the EC50 is the midpoint of the concentration-response curve. Usually Ki stands for a measure of affinity in units of concentration, obtained from inhibition or displacement. Read a low Ki as higher affinity.
